Reference: US6258790A, “Antisense modulation of integrin α4 expression” (Isis Pharmaceuticals, Inc., priority 1999, dated 2001)
pIC50: −log10 of the molar value. Several values for one entry are separate records, joined by “and”; a condition that tells them apart may be missing. Equal entries are not always repeated.

How the values were obtained:
[1] = tested on: murine integrin α4; assay: Antisense inhibition of murine integrin α4 protein expression in IC-21 macrophage cells (flow cytometry, CD49d-PE); format: cell-based, mouse; conditions: for % Control (integrin α4 protein) / % Inhib (integrin α4 protein): Table 11
Method: Murine IC-21 macrophage cells (American Type Culture Collection, Manassas, Va.) were used for further study. Additional oligonucleotides were designed to target murine integrin α4. These are shown in Table 10; all 2' MOE nucleotides are shown in bold and remaining positions are 2' deoxy. All 2'-MOE cytosines in these compounds are 5' methylcytosines. IC-21 cells were seeded at 5×10^4 cell/well plates two days before assay. […] Wells were triplicates.
Cells (triplicates) were seeded at 2.5×10^4 cells/well in 24-well plates the day before treatment. Oligonucleotide concentrations were 0.2, 1, 5, 25 and 50 nM in 3 ug/ml LIPOFECTIN. Cells were harvested with 2 mM EDTA for 4 minutes, then 1 ml of 2% BSA, 0.2% azide was added per contents of each well.
IC-21 cells were treated with 0.3, 1, 3, 10 and 30 nM oligonucleotide with 3 ug/ml LIPOFECTIN for 4 hours. Cells were incubated for 24 hours, harvested with trypsin, stained with 2 ug/ml CD49d-PE and rat IgG2B as in previous examples.
These compounds were tested for ability to inhibit integrin α4 protein expression.

[2] = tested on: murine integrin α4 RNA; assay: Dose response effect on integrin α4 RNA levels in IC-21 cells; format: cell-based, mouse; conditions: for Percent inhib. (integrin α4 RNA) / Percent of control (integrin α4 RNA): Table 14, duplicate
Method: another dose response experiment was done to determine the IC50 of ISIS 16433 for inhibition of integrin α4 RNA. IC-21 cells were tested in duplicate with ISIS 16433 at 6.25, 12.5, 25 or 50 nM with 3 ug/ml LIPOFECTIN.
RNA was purified with Qiagen Qiashredder/RNEASY™ Kit according to manufacturer's directions. Probes were random primed using a prime-a-Gene Kit (Promega, Madison, Wis.).

[3] = tested on: murine integrin α4 mRNA; assay: Antisense inhibition of murine integrin α4 mRNA expression in P388D (IL-1) macrophage cells (RNA gel, PCR-labeled probe); format: cell-based, mouse; conditions: Table 9, averages of duplicate samples
[4] = tested on: murine integrin α4 mRNA; assay: as above; format: cell-based, mouse; conditions: 100 nM; for % Control (murine integrin α4 mRNA) / % Inhib (murine integrin α4 mRNA): Table 8, P388D (IL-1) cells, 3 ug/ml lipofectin; for activity in the mRNA screen: Table 8 assay; for % Control / % Inhib.: Table 9, averages of duplicate samples
Method: Oligonucleotides were initially screened in murine P388D (IL-1) macrophage cells (American Type Culture Collection, Manassas Va.) for 4 hours at an oligonucleotide concentration of 100 nM in 3 ug/ml lipofectin.

[5] = tested on: human integrin α4; assay: Inhibition of human integrin α4 protein levels by antisense oligonucleotides (LIPOFECTIN, flow cytometry with CD49d-FITC) in A375 melanoma cells; format: cell-based; conditions: Table 24; A375 cells; lipofectin; as Example 8
[6] = tested on: human integrin α4; assay: Integrin α4 protein expression in A375 cells after electroporation of oligonucleotide (flow cytometry); format: cell-based; conditions: 24 hours
Method: A375 cells were treated with ISIS 107245, 107248, 107252, 107255 and 107259 by electroporation at 175 volts, r=1, c=1000, 0.2 ml Opti-MEM, 1×10^6 cells /ml, 2 mm gap electrode using a BTX Electro Cell Manipulator 600 (Genetronics, San Diego Calif.). Oligonucleotide concentrations were 1, 3, 10 and 30 μM. Cells were harvested 24 hours after oligonucleotide treatment and strained with 2 ug/ml CD49d-FITC for flow cytometry as in the previous examples.
ISIS 107248 was compared directly to ISIS 27104 for ability to inhibit integrin α4 expression in A375 melanoma cells. Oligonucleotides were electroporated into cells as in the previous example.

[7] = IC-21 cells, 25 nM, triplicates

Substance: 16478 (GCCGACACCCGTTCGTTCGG; phosphorothioate DNA, further chemistry not given here) [compound 16478]
- % Control (integrin α4 protein) [1, 7]: 92%
- % of control ([1]; Table 12, 5 nM, triplicates): 95%
- % Inhib. ([1]; Table 12, 25 nM, triplicates): 13%
- % of control ([1]; Table 12, 25 nM, triplicates): 87%
- % Inhib. ([1]; Table 12, 50 nM, triplicates): 16%
- % of control ([1]; Table 12, 50 nM, triplicates): 84%
- % of control ([1]; Table 13, 0.3 nM, 24 hours): 137%
- % of control ([1]; Table 13, 1 nM, 24 hours): 131%
- % of control ([1]; Table 13, 3 nM, 24 hours): 127%
- % of control ([1]; Table 13, 10 nM, 24 hours): 130%
- % of control ([1]; Table 13, 30 nM, 24 hours): 108%
- Percent inhib. (integrin α4 RNA) ([2]; 6.25 nM): 25%
- Percent of control (integrin α4 RNA) ([2]; 6.25 nM): 75%
- Percent inhib. (integrin α4 RNA) ([2]; 12.5 nM): 40%
- Percent of control (integrin α4 RNA) ([2]; 12.5 nM): 60%
- Percent inhib. (integrin α4 RNA) ([2]; 25 nM): 76%
- Percent of control (integrin α4 RNA) ([2]; 25 nM): 24%
- Percent inhib. (integrin α4 RNA) ([2]; 50 nM): 74%
- Percent of control (integrin α4 RNA) ([2]; 50 nM): 26%

Substance: 15609 (antisense CACCTCGCTTCCGCAGCCAT; phosphorothioate DNA, further chemistry not given here) [compound 15609]
- % Control (integrin α4 protein) [1, 7]: 57%
- % Inhib (integrin α4 protein) [1, 7]: 43%
- % Control ([3]; 12.5 nM): 54%
- % Inhib. ([3]; 12.5 nM): 46%
- % Control ([3]; 25 nM): 24%
- % Inhib. ([3]; 25 nM): 76%
- % Control ([3]; 50 nM): 28%
- % Inhib. ([3]; 50 nM): 72%
- % Control (murine integrin α4 mRNA) [4]: 07%
- % Inhib (murine integrin α4 mRNA) [4]: 93%
- activity in the mRNA screen [4]: most active
- % Control [4]: 57%
- % Inhib. [4]: 43%

Substance: 15605 (antisense CCGGTGCTGGCAGGCGACAG; phosphorothioate DNA, further chemistry not given here) [compound 15605]
- % Control (murine integrin α4 mRNA) [4]: 84%
- % Inhib (murine integrin α4 mRNA) [4]: 16%

Substance: 15602 (antisense CACGCCCCGTTTCTGTGGCC; phosphorothioate DNA, further chemistry not given here) [compound 15602]
- % Control (murine integrin α4 mRNA) [4]: 48%
- % Inhib (murine integrin α4 mRNA) [4]: 52%

Substance: 107259 (antisense GGAACACAGCCCGTAGGAAA; chemistry not given here) [compound 107259]
- % Control [5]: 37%
- % Control ([6]; Table 25, 1 nM as printed): 17.7%
- % Control ([6]; Table 25, 10 nM): 42.9%
- % Control ([6]; Table 25, 30 nM): 19.4%

Substance: 15601 (antisense CACGCCCCGTTTCTGTGGCC; phosphodiester, 2'-MOE, further chemistry not given here) [compound 15601]
- % Control (murine integrin α4 mRNA) [4]: 60%
- % Inhib (murine integrin α4 mRNA) [4]: 40%

Substance: 16433 (CCGCAGCCATGCGCTCTTGG; phosphorothioate, 2'-MOE/deoxy, further chemistry not given here) [compound 16433]
- pIC50 ([1]; IC-21 cells): ~9.00
- inhibition of protein levels ([1]; IC-21 cells, 30 nM): inhibit protein levels to below basal levels
- % Control (integrin α4 protein) [1, 7]: 23%
- % Inhib (integrin α4 protein) ([1]; IC-21 cells, 25 nM, triplicates, 0.025 µM): 77% and > 50%
- % Inhib. ([1]; Table 12, 0.2 nM, triplicates): 15%
- % of control ([1]; Table 12, 0.2 nM, triplicates): 85%
- % Inhib. ([1]; Table 12, 1 nM, triplicates): 38%
- % of control ([1]; Table 12, 1 nM, triplicates): 62%
- % Inhib. ([1]; Table 12, 5 nM, triplicates): 63%
- % of control ([1]; Table 12, 5 nM, triplicates): 37%
- % Inhib. ([1]; Table 12, 25 nM, triplicates): 80%
- % of control ([1]; Table 12, 25 nM, triplicates): 20%
- % Inhib. ([1]; Table 12, 50 nM, triplicates): 70%
- % of control ([1]; Table 12, 50 nM, triplicates): 30%
- % Inhib. ([1]; Table 13, 0.3 nM, 24 hours): 11%
- % of control ([1]; Table 13, 0.3 nM, 24 hours): 89%
- % Inhib. ([1]; Table 13, 1 nM, 24 hours): 32%
- % of control ([1]; Table 13, 1 nM, 24 hours): 68%
- % Inhib. ([1]; Table 13, 3 nM, 24 hours): 75%
- % of control ([1]; Table 13, 3 nM, 24 hours): 25%
- % Inhib. ([1]; Table 13, 10 nM, 24 hours): 97%
- % of control ([1]; Table 13, 30 nM, 24 hours): -14%
- % Control ([1]; Table 16, 0.3 nM): 146%
- % Control ([1]; Table 16, 1 nM): 94%
- % Control ([1]; Table 16, 3 nM): 64%
- % Inhib. ([1]; Table 16, 3 nM): 36%
- % Control ([1]; Table 16, 10 nM): 02%
- % Inhib. ([1]; Table 16, 10 nM): 98%
- pIC50 ([2]; IC-21 cells, read-out: IC50 for integrin α4 RNA reduction): ~8.00
- Percent inhib. (integrin α4 RNA) ([2]; 6.25 nM): 41%
- Percent of control (integrin α4 RNA) ([2]; 6.25 nM): 59%
- Percent inhib. (integrin α4 RNA) ([2]; 12.5 nM): 44%
- Percent of control (integrin α4 RNA) ([2]; 12.5 nM): 46%
- Percent inhib. (integrin α4 RNA) ([2]; 25 nM): 72%
- Percent of control (integrin α4 RNA) ([2]; 25 nM): 28%
- Percent inhib. (integrin α4 RNA) ([2]; 50 nM): 57%
- Percent of control (integrin α4 RNA) ([2]; 50 nM): 43%

Substance: 15608 (antisense CCGCAGCCATGCGCTCTTGG; phosphorothioate DNA, further chemistry not given here) [compound 15608]
- % Control (integrin α4 protein) [1, 7]: 63%
- % Inhib (integrin α4 protein) [1, 7]: 37%
- % Control ([3]; 12.5 nM): 59%
- % Inhib. ([3]; 12.5 nM): 41%
- % Control ([3]; 25 nM): 29%
- % Inhib. ([3]; 25 nM): 71%
- % Control ([3]; 50 nM): 23%
- % Inhib. ([3]; 50 nM): 77%
- % Control (murine integrin α4 mRNA) [4]: 16%
- % Inhib (murine integrin α4 mRNA) [4]: 84%
- activity in the mRNA screen [4]: most active
- % Control [4]: 39%
- % Inhib. [4]: 61%

Substance: 15603 (antisense GGATGCTTCAGGCTCTGGCC; phosphorothioate DNA, further chemistry not given here) [compound 15603]
- % Control (murine integrin α4 mRNA) [4]: 38%
- % Inhib (murine integrin α4 mRNA) [4]: 62%
